According to patent publication US10000496B2, “Compositions useful for treating disorders related to kit and PDGFR” (BLUEPRINT MEDICINES CORPORATION, priority 2015, dated 2018):

Experiments:
[1] = target: T1, Kit D816V in HMC1.2 cells (Homo sapiens, UniProt P10721, D816V/V560G); assay: HMC1.2 autophosphorylation assay (Kit autophosphorylation at tyrosine 719, AlphaLISA); assay type: cell-based; details: HMC1.2 mast cell leukemia cells (Kit V560G and D816V), phospho-Y719 c-Kit, 90 minutes; read-out: Cellular Activity IC50
T1 construct: endogenous in cells; host or cells: HMC1.2
Protocol: 10,000 HMC1.2 cells were incubated in 22 ul culture media (phenol-red free IMDM, no serum) in each well of a 384-well plate and serum starved overnight in a tissue culture incubator (5% CO2, 37° C.). A 10-point dose concentration series of compound (25 uM-95.4 pM) were then added to the cells in a volume of 3.1 ul to each well (0.25% DMSO final concentration). After 90 minutes, 6 ul of 5× AlphaLISA Lysis Buffer (Perkin Elmer) supplemented with a protease and phosphatase inhibitor cocktail (Cell Signaling Technologies) was added to each well and shaken at 450 rpm for 15 minutes at 4° C. 10 ul of phospho-Y719 c-Kit and total c-Kit antibodies (15 nM final concentration, Cell Signaling Technologies) and 50 ug/ml AlphaLISA rabbit acceptor beads (Perkin Elmer) were added to each well and shaken at 300 rpm at room temperature for 2 hours. 10 ul of 100 ug/ml streptavidin donor beads (Perkin Elmer) were added to each well, blocked from light with aluminum adhesive and shaken at 300 rpm at room temperature for 2 hours. Fluorescence signal was obtained on Envision (Perkin Elmer) by AlphaScreen 384 well HTS protocol. Data was normalized to 0% and 100% inhibition controls and the IC50 was calculated using Four Parameter Logistic IC50 curve fitting.
This cell line contains Kit mutated at positions V560G and D816V resulting in constitutive activation of the kinase. The following compounds were tested in an assay to measure direct inhibition of Kit D816V kinase activity by assaying Kit autophosphorylation at tyrosine 719 on the Kit protein.

[2] = target: T2, D816V Kit (Homo sapiens, UniProt P10721, D816V); assay: Kit D816V assay at Km (Caliper electrophoretic mobility shift); details: D816V Kit 0.5 nM, 15 uM ATP (Km), 1 uM Srctide, 25 C, 90 minutes; read-out: Biochemical Activity D816V IC50
T2 construct: purchased Carna Bioscience 08-156
Protocol: In order to assess the activity of chemical compounds against the relevant kinase of interest, the Caliper LifeSciences electrophoretic mobility shift technology platform is used. Fluorescently labeled substrate peptide is incubated in the presence of kinase and ATP so that a […] proportion of the peptide is phosphorylated. At the end of the reaction, the mix of phosphorylated (product) and non-phosphorylated (substrate) peptides are passed through the microfluidic system of the Caliper EZ Reader 2, under an applied potential difference. The presence of the phosphate group on the product peptide provides a difference in mass and charge between those of the substrate peptide, resulting in a separation of the substrate and product pools in the sample. As the pools pass a LEDS within the instrument, these pools are detected and resolved as separate peaks. The ratio between these peaks therefore reflects the activity of the chemical matter at that concentration in that well, under those conditions.
Kit D816V assay at Km: In each well of a 384-well plate, 0.04 ng/ul (0.5 nM) of D816V Kit (Carna Bioscience 08-156) was incubated in a total of 12.5 ul of buffer (100 mM HEPES pH 7.5, 0.015% Brij 35, 10 mM MgCl2, 1 mM DTT) with 1 uM Srctide (5-FAM-GEEPLYWSFPAKKK-NH2) and 15 uM ATP at 25 C for 90 minutes in the presence or absence of a dosed concentration series of compound (1% DMSO final concentration). The reaction was stopped by the addition of 70 ul of Stop buffer (100 mM HEPES pH 7.5, 0.015% Brij 35, 35 mM EDTA and 0.2% of Coating Reagent 3 (Caliper Lifesciences)). The plate was then read on a Caliper EZReader 2 (protocol settings:—1.9 psi, upstream voltage—700, downstream voltage—3000, post sample sip 35s). Data was normalized to 0% and 100% inhibition controls and the IC50 or EC50 calculated using a 4-parameter fit using GraphPad Prism.

T1 sequence (P10721 26-976 V560G/D816V): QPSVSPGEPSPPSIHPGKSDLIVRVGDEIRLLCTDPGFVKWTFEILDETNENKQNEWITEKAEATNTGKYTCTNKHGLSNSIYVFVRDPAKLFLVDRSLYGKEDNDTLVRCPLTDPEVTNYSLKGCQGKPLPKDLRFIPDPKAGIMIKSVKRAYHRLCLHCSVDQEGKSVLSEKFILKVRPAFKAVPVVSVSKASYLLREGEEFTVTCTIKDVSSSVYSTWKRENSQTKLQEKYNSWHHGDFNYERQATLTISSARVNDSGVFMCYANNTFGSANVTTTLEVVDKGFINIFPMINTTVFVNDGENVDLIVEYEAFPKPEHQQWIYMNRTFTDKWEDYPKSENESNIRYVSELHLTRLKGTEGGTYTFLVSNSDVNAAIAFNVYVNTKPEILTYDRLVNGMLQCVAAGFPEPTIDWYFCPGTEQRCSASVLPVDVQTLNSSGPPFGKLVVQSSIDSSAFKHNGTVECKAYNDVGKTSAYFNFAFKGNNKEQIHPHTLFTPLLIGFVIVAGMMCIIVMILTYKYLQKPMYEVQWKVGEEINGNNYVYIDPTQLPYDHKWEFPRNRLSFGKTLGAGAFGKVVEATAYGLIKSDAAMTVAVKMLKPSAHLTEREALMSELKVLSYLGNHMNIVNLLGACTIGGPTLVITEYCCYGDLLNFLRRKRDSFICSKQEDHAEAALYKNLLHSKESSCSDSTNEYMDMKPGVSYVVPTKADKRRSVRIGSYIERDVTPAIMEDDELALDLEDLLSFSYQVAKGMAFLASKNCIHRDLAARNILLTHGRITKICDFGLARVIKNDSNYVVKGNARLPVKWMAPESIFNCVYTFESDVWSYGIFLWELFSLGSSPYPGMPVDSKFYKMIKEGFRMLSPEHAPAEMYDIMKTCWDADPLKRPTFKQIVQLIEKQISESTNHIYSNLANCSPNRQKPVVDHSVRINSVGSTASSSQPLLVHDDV
T2 sequence (P10721 26-976 D816V): as the sequence (P10721 26-976 V560G/D816V) above, with G535V counted along it

IC50 [1] | IC50 [2] | Compound
1000 to 10000 nM | 1.01 to 10 nM | Cn1cc(-c2cc3c(-c4ccc(NS(C)(=O)=O)cc4)ncnn3c2)cn1 [Compound 1]
> 10000 nM | 10 to 100 nM | CC(C)S(=O)(=O)Nc1ccc(-c2ncnn3cc(-c4cnn(C)c4)cc23)cc1 [Compound 2]
10 to 100 nM | 1.01 to 10 nM | Cn1cc(-c2cc3c(-c4ccc(NC(=O)Cc5ccccc5)cc4)ncnn3c2)cn1 [Compound 3]
1000 to 10000 nM | 1.01 to 10 nM | Cn1cc(-c2cc3c(-c4ccc(NC(=O)Cc5cccnc5)cc4)ncnn3c2)cn1 [Compound 4]
1000 to 10000 nM | 10 to 100 nM | Cn1cc(-c2cc3c(-c4ccc(NC(=O)Cc5ccccn5)cc4)ncnn3c2)cn1 [Compound 5]
1000 to 10000 nM | 10 to 100 nM | Cn1cc(CC(=O)Nc2ccc(-c3ncnn4cc(-c5cnn(C)c5)cc34)cc2)cn1 [Compound 6]
– | 10 to 100 nM | Cn1cc(-c2cc3c(-c4ccc(NC(=O)c5ccc(C#N)cc5)cc4)ncnn3c2)cn1 [Compound 7]
10 to 100 nM | 1.01 to 10 nM | Cc1ccc(CC(=O)Nc2ccc(-c3ncnn4cc(-c5cnn(C)c5)cc34)cc2)cc1 [Compound 8]
100 to 1000 nM | 10 to 100 nM | Cn1cc(-c2cc3c(-c4ccc(NC(=O)NCc5ccccc5)cc4)ncnn3c2)cn1 [Compound 9, 1-benzyl-3-(4-(6-(1-methyl-1H-pyrazol-4-yl)pyrrolo[1,2-f][1,2,4]triazin-4-yl)phenyl)urea]
– | < 1 nM | Cn1cc(-c2cc3c(-c4ccc(NC(=O)C(O)c5ccccc5)cc4)ncnn3c2)cn1 (centres unmarked) [Compound 10]
10 to 100 nM | 1.01 to 10 nM | Cn1cc(-c2cc3c(-c4ccc(NC(=O)Cc5ccc(F)cc5)cc4)ncnn3c2)cn1 [Compound 11]
– | > 100 nM | Cn1cc(-c2cc3c(-c4ccc(NC(=O)c5ccc(Cl)cc5)cc4)ncnn3c2)cn1 [Compound 12]
100 to 1000 nM | 1.01 to 10 nM | Cn1cc(-c2cc3c(-c4ccc(NS(=O)(=O)c5ccccc5)cc4)ncnn3c2)cn1 [Compound 13]
100 to 1000 nM | 1.01 to 10 nM | CN(C)C(=O)c1ccc(-c2cc3c(-c4ccc(NS(C)(=O)=O)cc4)ncnn3c2)cc1 [Compound 14]
– | 1.01 to 10 nM | COC(C(=O)Nc1ccc(-c2ncnn3cc(-c4cnn(C)c4)cc23)cc1)c1ccccc1 (centres unmarked) [Compound 15]
100 to 1000 nM | 1.01 to 10 nM | CS(=O)(=O)Nc1ccc(-c2ncnn3cc(-c4ccc(S(C)(=O)=O)cc4)cc23)cc1 [Compound 16]
10 to 100 nM | 1.01 to 10 nM | Cn1cc(-c2cc3c(-c4ccc(NC(=O)Cc5ccc(Cl)cc5)cc4)ncnn3c2)cn1 [Compound 17]
100 to 1000 nM | 1.01 to 10 nM | Cn1cc(-c2cc3c(-c4ccc(NC(=O)Cc5cccc(Cl)c5)cc4)ncnn3c2)cn1 [Compound 18]
100 to 1000 nM | 1.01 to 10 nM | Cn1cc(-c2cc3c(-c4ccc(NC(=O)Cc5ccccc5Cl)cc4)ncnn3c2)cn1 [Compound 19]
10 to 100 nM | 1.01 to 10 nM | Cn1cc(-c2cc3c(-c4ccc(NC(=O)Cc5ccc(Cl)nc5)cc4)ncnn3c2)cn1 [Compound 20]
– | > 100 nM | Cn1cc(-c2cc3c(-c4ccc(NC(=O)Nc5ccc(Cl)cc5)cc4)ncnn3c2)cn1 [Compound 21]

IC50 [1] | IC50 [2] | Compound
10 to 100 nM | 1.01 to 10 nM | Cc1ccc(S(=O)(=O)Nc2ccc(-c3ncnn4cc(-c5cnn(C)c5)cc34)cc2)cc1 [Compound 22]
10 to 100 nM | 1.01 to 10 nM | Cn1cc(-c2cc3c(-c4ccc(NC(=O)Cc5c[nH]c6ccccc56)cc4)ncnn3c2)cn1 [Compound 23]
100 to 1000 nM | 1.01 to 10 nM | Cn1cc(-c2cc3c(-c4ccc(NS(=O)(=O)c5ccc(F)cc5)cc4)ncnn3c2)cn1 [Compound 24]
1000 to 10000 nM | 10 to 100 nM | Cn1cc(-c2cc3c(-c4ccc(NS(=O)(=O)CC5COCCO5)cc4)ncnn3c2)cn1 (centres unmarked) [Compound 25]
1000 to 10000 nM | 1.01 to 10 nM | Cn1cc(-c2cc3c(-c4ccc(NS(=O)(=O)c5ccc(C#N)cc5)cc4)ncnn3c2)cn1 [Compound 26]
1000 to 10000 nM | 10 to 100 nM | O=C(Cc1ccc(Cl)cc1)Nc1ccc(-c2ncnn3cc(-c4ccc(F)cc4)cc23)cc1 [Compound 27]
< 10 nM | 1.01 to 10 nM | C[C@@H](C(=O)Nc1ccc(-c2ncnn3cc(-c4cnn(C)c4)cc23)cc1)c1ccc(Cl)cc1 [Compound 28]
< 10 nM | 1.01 to 10 nM | CC(C(=O)Nc1ccc(-c2ncnn3cc(-c4cnn(C)c4)cc23)cc1)c1ccc(Cl)cc1 (centres unmarked) [Compound 29]
100 to 1000 nM | 10 to 100 nM | C[C@H](C(=O)Nc1ccc(-c2ncnn3cc(-c4cnn(C)c4)cc23)cc1)c1ccc(Cl)cc1 [Compound 30]
< 10 nM | 1.01 to 10 nM | Cn1cc(-c2cc3c(-c4ccc(NC(=O)C(N)c5ccc(Cl)cc5)cc4)ncnn3c2)cn1 (centres unmarked) [Compound 31, 2-amino-2-(4-chlorophenyl)-N-(4-(6-(1-methyl-1H-pyrazol-4-yl)pyrrolo[1,2-f][1,2,4]triazin-4-yl)phenyl)acetamide]
< 10 nM | < 1 nM | Cn1cc(-c2cc3c(-c4ccc(NC(=O)[C@H](O)c5ccc(Cl)cc5)cc4)ncnn3c2)cn1 [Compound 32, 2-(4-chlorophenyl)-2-hydroxy-N-(4-(6-(1-methyl-1H-pyrazol-4-yl)pyrrolo[1,2-f][1,2,4]triazin-4-yl)phenyl)acetamide]
< 10 nM | 1.01 to 10 nM | Cn1cc(-c2cc3c(-c4ccc(NC(=O)C(O)c5ccc(Cl)cc5)cc4)ncnn3c2)cn1 (centres unmarked) [Compound 33, 2-(4-chlorophenyl)-2-hydroxy-N-(4-(6-(1-methyl-1H-pyrazol-4-yl)pyrrolo[1,2-f][1,2,4]triazin-4-yl)phenyl)acetamide]
10 to 100 nM | 1.01 to 10 nM | Cn1cc(-c2cc3c(-c4ccc(NC(=O)[C@@H](O)c5ccc(Cl)cc5)cc4)ncnn3c2)cn1 [Compound 34, 2-(4-chlorophenyl)-2-hydroxy-N-(4-(6-(1-methyl-1H-pyrazol-4-yl)pyrrolo[1,2-f][1,2,4]triazin-4-yl)phenyl)acetamide]
100 to 1000 nM | 1.01 to 10 nM | COc1ccc(S(=O)(=O)Nc2ccc(-c3ncnn4cc(-c5cnn(C)c5)cc34)cc2)cc1 [Compound 35]
10 to 100 nM | < 1 nM | Cn1cc(-c2cc3c(-c4ccc(NS(=O)(=O)c5ccc(Cl)cc5)cc4)ncnn3c2)cn1 [Compound 36]
100 to 1000 nM | 10 to 100 nM | Cn1cc(-c2cc3c(-c4ccc(NS(=O)(=O)c5cccc(Cl)c5)cc4)ncnn3c2)cn1 [Compound 37]
1000 to 10000 nM | 10 to 100 nM | Cn1cc(-c2cc3c(-c4ccc(NS(=O)(=O)c5ccccc5Cl)cc4)ncnn3c2)cn1 [Compound 38]
100 to 1000 nM | 10 to 100 nM | Cn1cc(-c2cc3c(-c4ccc(NC(=O)C5(c6ccc(Cl)cc6)CC5)cc4)ncnn3c2)cn1 [Compound 39]
10 to 100 nM | < 1 nM | Cn1cc(-c2cc3c(-c4ccc(NS(=O)(=O)Cc5ccc(C#N)cc5)cc4)ncnn3c2)cn1 [Compound 40]
10 to 100 nM | < 1 nM | Cn1cc(-c2cc3c(-c4ccc(NC(=O)C(C)(C)c5ccc(Cl)cc5)cc4)ncnn3c2)cn1 [Compound 41, 2-(4-chlorophenyl)-2-methyl-N-(4-(6-(1-methyl-1H-pyrazol-4-yl)pyrrolo[1,2-f][1,2,4]triazin-4-yl)phenyl)propanamide]
